Results taken from publication PMC4488747, “Inhibition of P-glycoprotein Gene Expression and Function Enhances Triptolide-induced Hepatotoxicity in Mice” (Scientific Reports, 2015).
Read-outs that look alike come from different tables or passages of the source.

Columns and labels:
[1] = Triptolide plasma toxicokinetics in mice; type: in vivo; conditions: TP 1.0 mg/kg iv
Description: (§1) For TP plasma kinetic study and toxicological evaluation, mice were divided into four groups (n = 5 each) to collect blood and tissue samples: (1) normal + saline group; (2) 1.0 mg/kg TP + 15 nmol NC-siRNA group; (3) 1.0 mg/kg TP + 15 nmol mdr1a-siRNA group; (4) 1.0 mg/kg TP + 10 mg/kg tariquidar group. In order to avoid the complication caused by drug absorption or possible intestinal first-pass effect, TP and the inhibitor were intravenously administrated to mice. The siRNA group was intravenously injected with NC-siRNA or mdr1a-siRNA 2 days before TP dose. For TP + tariquidar group, the mice were received an intravenous tariquidar dose 20 min prior to the TP injection. Blood samples were collected at 2, 5, 10, 15, 30, 60 and 120 min after TP dosing. To assess the liver exposure of TP, liver tissue samples were collected from another set of mice at 5, 30, 60 and 120 min after dosing. Three TP groups were design for this experiment, including TP + NC-siRNA group, TP + mdr1a-siRNA group and TP + tariquidar group. The liver tissue samples were weighed and then homogenized in 10 volume (w:v) of ice-cold saline. The concentrations of TP in plasma and liver tissue were measured by a validated LC-MS/MS method. Prior to the above animal study, a preliminary experiment was performed to assess the possible differences in liver P-gp protein expression (Figure S1) and TP plasma kinetics between NC-siRNA treated mice and normal mice (with saline) (Figure S2 and supplemental Table 1). […] Therefore, NC-siRNA group was used as the control in the following animal study.
(§2) The TP in plasma and tissue samples was quantitatively analyzed by a published LC-MS/MS method. The method was slightly modified and validated for analysis of plasma and liver tissue samples. Plasma and tissue homogenate were pretreated with 3-fold volume of methanol-acetonitrile (1:1, v/v) containing 20 ng/ml propranolol to precipitate proteins, and then centrifuged at 4°C, 14,000 g for 10 min. The supernatant (10 μl) was injected into LC-MS/MS for analysis. An Aglient 6410B triple quadrupole mass spectrometer equipped with Agilent1290 Infinity UHPLC system (Agilent Technologies, Santa Clara, CA) was used. TP and propranolol (internal standard, IS) were eluted from an Agilent C18 column (dp = 3.5 μm, 2.1 × 50 mm, Agilent, MA) using a mobile phase gradient (A: water with 0.1% formic acid and 2.5 mM ammonium formate, B: acetonitrile with 0.1% formic acid). The gradient was run as: 0–2.5 min hold at 95% B; 2.5–3 min, a linear gradient to 10% B; 3–4 min hold at 10% B. Flow rate was 0.2 ml/min. TP and propranolol were detected in positive ion mode using single reaction monitoring: TP, m/z 378.1/360.1, IS, m/z 260.0/116.0. Under the above optimized condition, no significant endogenous interferences were detected at the peak regions for TP and IS in all the biological specimens. The calibration curves of TP were linear (r^2 > 0.99) over the concentration range of 1–1000 ng/ml. The lower limit of quantification was at 1 ng/ml. The intra and inter-day precisions (RSD) were all below 11% and the assay accuracies (RE) were in the range from 87% to 113%. The recovery was above 80% for both plasma and tissue samples.
Toxicokinetic parameters, including area under the plasma concentration-time curve (AUC), volume of distribution (Vd), clearance (CL), mean residence time (MRT) and terminal elimination half-life (t1/2), were calculated by non-compartmental analysis using WinNonlin 5.2 software (Pharsight Corporation, CA, USA). All the data were expressed as mean ± SD. Differences between groups were compared by Student’s t-test for analysis of unpaired data or one-way ANOVA. Statistical significance was accepted at P < 0.05.

[2] = Hepatic concentrations of triptolide in mice; type: in vivo; conditions: mice liver
Description: as §1, §2

[3] = system: BALB/C mice; assay: Liver histopathology (HE staining) in mice; type: in vivo; conditions: TP 1 mg/kg iv, 24 h, TP = NC-siRNA group, tariquidar and mdr1a-1 siRNA = given before TP
Description: For TP plasma kinetic study and toxicological evaluation, mice were divided into four groups (n = 5 each) to collect blood and tissue samples: (1) normal + saline group; (2) 1.0 mg/kg TP + 15 nmol NC-siRNA group; (3) 1.0 mg/kg TP + 15 nmol mdr1a-siRNA group; (4) 1.0 mg/kg TP + 10 mg/kg tariquidar group. In order to avoid the complication caused by drug absorption or possible intestinal first-pass effect, TP and the inhibitor were intravenously administrated to mice. The siRNA group was intravenously injected with NC-siRNA or mdr1a-siRNA 2 days before TP dose. For TP + tariquidar group, the mice were received an intravenous tariquidar dose 20 min prior to the TP injection. Blood samples were collected at 2, 5, 10, 15, 30, 60 and 120 min after TP dosing. To assess the liver exposure of TP, liver tissue samples were collected from another set of mice at 5, 30, 60 and 120 min after dosing. […] The concentrations of TP in plasma and liver tissue were measured by a validated LC-MS/MS method. […]
(§3) At 24 h of TP treatment, blood and liver tissue samples were collected from the mice in plasma kinetic study. Serum ALT and AST levels were determined with a CL8000 automated biochemical analyzer (Shimadzu, Japan) after serum was separated by centrifugation at 900 g for 10 min. […] The total protein concentration was quantified by the BCA assay. Bcl-2 and Bax proteins were measured by western blot.

[4] = system: Bcl-2/Bax; assay: Bcl-2 and Bax expression in mouse liver (western blot); type: in vivo; conditions: mice, TP 1 mg/kg iv, 24 h; tariquidar and mdr1a-siRNA = given before TP
Description: For protein extraction, the cells or mice liver tissues were homogenized in RIPA buffer and then centrifuged at 14,000 g at 4 °C for 30 min. The supernatant was collected and the protein concentration was measured using BCA assay. The sample (50 μg protein/sample) was then loaded on 12% polyacrylamide gels and transferred to polyvinylidene difluoride membranes (Millipore, USA). After blocked by 3% bovine serum albumin, the membranes were incubated with primary antibodies and HRP-conjugated secondary antibody, and then detected using the enhanced chemiluminescence plus detection system (Molecular Device, Lmax, USA). The density of each band was quantified by using image analysis software (Science Lab 2005 Image Guage; Tokyo, Japan).
as §3, with “min. Liver tissue samples were divided into two parts, the first half was kept at −80 °C until MDA and SOD measurements using MDA and SOD assay kits (Nanjing Jiancheng Bioengineering Institute, Nanjing, China) according to the manufacturer’s instructions.” for “min.”

[5] = set-up: method as in PMID 24632843; conditions: bile duct-cannulated (BDC) rats, in 24 h; cited from earlier work
[6] = C57, mouse, iv, 1 mg/kg, 15 nmol NC-siRNA iv 2 days before (control)
[7] = C57, mouse, iv, 1 mg/kg, 15 nmol mdr1a-siRNA iv 2 days before
[8] = C57, mouse, iv, 1 mg/kg, with tariquidar 10 mg/kg iv, 20 min before TP, tariquidar 10 mg/kg iv 20 min prior
[9] = 15 nmol NC-siRNA iv 2 days before (control)
[10] = 15 nmol mdr1a-siRNA iv 2 days before

CC(C)[C@]12O[C@H]1[C@@H]1O[C@]13[C@]1(O[C@H]1C[C@H]1C4=C(CC[C@@]13C)C(=O)OC4)[C@@H]2O [TP, Triptolide] showed an MRT ([1]; C57, mouse, 15 nmol NC-siRNA iv 2 days before (control)) of 20.4 ± 7.8 min, an AUC(0-t) [1, 6] of 104 ± 9.6 ng·h/mL and a Vd [1, 6] of 4.8 ± 1.1 L/kg. For the same compound, the half-life [1, 6] was 20.4 ± 8.4 min, the Cmax ([1]; C57, mouse, iv, 1 mg/kg, 15 nmol NC-siRNA iv 2 days before (control), read-out: Cmax) was 413 ± 74 ng/mL and the AUC(0-t) [1, 7] was 154 ± 30.2 ng·h/mL. It also gave a Vd [1, 7] of 3.3 ± 0.7 L/kg, a half-life [1, 7] of 29.4 ± 13.8 min and a Cmax ([1]; C57, mouse, iv, 1 mg/kg, 15 nmol mdr1a-siRNA iv 2 days before, read-out: Cmax) of 510 ± 94 ng/mL. It also gave an AUC(0-t) [1, 8] of 146 ± 24.6 ng·h/mL, a Vd [1, 8] of 3.9 ± 1.3 L/kg and a half-life [1, 8] of 29.4 ± 13.2 min. For the same compound, the Cmax ([1]; C57, mouse, iv, 1 mg/kg, with tariquidar 10 mg/kg iv, 20 min before TP, tariquidar 10 mg/kg iv 20 min prior, read-out: Cmax) was 472 ± 66.5 ng/mL, the CL [1, 9] was 573.84 ± 61.452 L/h/kg and the Cmax [1, 9] was 413.1 ± 74.2 ng/mL. It also gave a CL [1, 10] of 345.32 ± 72.006 L/h/kg, a Cmax [1, 10] of 509.7 ± 94.1 ng/mL and an MRT ([1]; mouse, 15 nmol mdr1a-siRNA iv 2 days before) of 30.6 ± 13.8 min. The MRT ([1]; mouse, with tariquidar 10 mg/kg iv, 20 min before TP, tariquidar 10 mg/kg iv 20 min prior) was 30 ± 13.2 min, the “Hepatic concentration of TP” value ([2]; 5 min after TP 1.0 mg/kg iv, NC-siRNA pretreatment (control)) was 1953.3 ± 786.7 ng/g protein and the “Hepatic concentration of TP” value ([2]; 5 min after TP 1.0 mg/kg iv, mdr1a-siRNA iv 2 days before) was 4278.0 ± 653.1 ng/g protein. For the same compound, the “Hepatic concentration of TP” value ([2]; 5 min after TP 1.0 mg/kg iv, tariquidar 10 mg/kg iv 20 min prior) was 2857.3 ± 909.4 ng/g protein, the “Hepatic concentration of TP” value ([2]; 30 min after TP 1.0 mg/kg iv, NC-siRNA pretreatment (control)) was 394.9 ± 41.2 ng/g protein and the “Hepatic concentration of TP” value ([2]; 30 min after TP 1.0 mg/kg iv, mdr1a-siRNA iv 2 days before) was 950.8 ± 232.1 ng/g protein. For the same compound, the “Hepatic concentration of TP” value ([2]; 30 min after TP 1.0 mg/kg iv, tariquidar 10 mg/kg iv 20 min prior) was 683.9 ± 61.3 ng/g protein, the “Hepatic concentration of TP” value ([2]; 60 min after TP 1.0 mg/kg iv, NC-siRNA pretreatment (control)) was 170.6 ± 66.3 ng/g protein and the “Hepatic concentration of TP” value ([2]; 60 min after TP 1.0 mg/kg iv, mdr1a-siRNA iv 2 days before) was 326.2 ± 22.4 ng/g protein. The “Hepatic concentration of TP” value ([2]; 60 min after TP 1.0 mg/kg iv, tariquidar 10 mg/kg iv 20 min prior) was 302.8 ± 22.7 ng/g protein, the “Hepatic concentration of TP” value ([2]; 120 min after TP 1.0 mg/kg iv, NC-siRNA pretreatment (control)) was 37.4 ± 12.2 ng/g protein and the “Hepatic concentration of TP” value ([2]; 120 min after TP 1.0 mg/kg iv, mdr1a-siRNA iv 2 days before) was 84.8 ± 14.5 ng/g protein. For the same compound, the “Hepatic concentration of TP” value ([2]; 120 min after TP 1.0 mg/kg iv, tariquidar 10 mg/kg iv 20 min prior) was 36.1 ± 14.4 ng/g protein, the “Histopathological changes in liver (HE)” value [3] was “hepatocellular hydropic degeneration and vacuolization” and the “Bcl-2/Bax ratio in liver” value [4] was “significantly reduced”. The “TP dose excreted via bile” value [5] was ~39%.
